The record followed here is PMC5039424 (2016).

Molecules are shown by their SMILES.

In the experiment the test system is yeast tRNA^Phe (RNA, tRNA) GCGGAUUUAGCUCAGUUGGGAGAGCGCCAGACUGAAGAUCUGGAGGUCCUGUGUUCGAUCCACAGAAUUCGCACCA
Kind of experiment: inhibition of lead(II)-induced cleavage, gel. Particulars: 10 mM Mg2+, 1 mM NH4+, 0.5 mM Pb2+; 50% inhibition of Pb2+ cleavage; 50 mM Tris-HCl pH 7.5; RNA 2.4 μM.

On to `Cc1cc2nc3ccc(N(C)C)cc3[s+]c2cc1N`, for which the inhibitory constant (Ki) came out at 70 ± 20 µM.

The term Ki denotes the dissociation constant of the complex between target and ligand, obtained from inhibition or displacement. A low value points to tighter binding.
